Patent US10428051B2 (priority 2015, dated 2019)

Biological target: human σ1 receptor (Homo sapiens, UniProt Q99720)
Assay: biochemical
Type: binding
Set-up: μ and σ1 dual (binding to the σ1 receptor and the μ-opioid receptor expressed as Ki): key to the marks not given beside the values

human σ1 receptor, sequence (Q99720 whole entry): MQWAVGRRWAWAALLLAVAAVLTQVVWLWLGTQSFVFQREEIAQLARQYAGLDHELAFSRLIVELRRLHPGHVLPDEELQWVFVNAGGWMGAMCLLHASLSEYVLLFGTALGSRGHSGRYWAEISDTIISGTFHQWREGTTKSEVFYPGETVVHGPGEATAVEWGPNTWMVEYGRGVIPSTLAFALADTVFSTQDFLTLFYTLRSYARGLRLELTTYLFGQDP

| Compound | μ and σ1 dual (binding to the σ1 receptor and the μ-opioid receptor expressed as Ki) | Ki [nM] |
| --- | --- | --- |
| CCC(=O)N(CC1(N2CCN(Cc3ccccc3)CC2)CC1)c1ccncc1 [Example 31, N-((1-(4-benzylpiperazin-1-yl)cyclopropyl)methyl)-N-(pyridin-4-yl)propionamide] | ++ | – |
| CCC(=O)N(CC1(N2CCN(Cc3ccc(F)c(F)c3)CC2)CCOCC1)c1ccccc1 [Example 108, N-((4-(4-(3,4-difluorobenzyl)piperazin-1-yl)tetrahydro-2H-pyran-4-yl)methyl)-N-phenylpropionamide] | – | < 500 |
| CCC(=O)N(CC(C)(C)N1CCN(CCc2ncccc2F)CC1)c1ccccc1 [Example 72, N-(2-(4-(2-(3-fluoropyridin-2-yl)ethyl)piperazin-1-yl)-2-methylpropyl)-N-phenylpropionamide] | ++ | – |
| CCC(=O)N(CC1(N2CCN(C(C)CC)CC2)CCOC(C)(C)C1)c1cccc(C(F)(F)F)n1 (stereo not drawn) [Example 162, N-((4-(4-sec-butylpiperazin-1-yl)-2,2-dimethyltetrahydro-2H-pyran-4-yl)methyl)-N-(6-(trifluoromethyl)pyridin-2-yl)propionamide] | – | > 500 |
| CCC(=O)N(CC1(N2CCN(C(C(=O)OC)c3ccccc3)CC2)CCOCC1)c1ccccn1 (stereo not drawn) [Example 180, methyl 2-phenyl-2-(4-(4-((N-(pyridin-2-yl)propionamido)methyl)tetrahydro-2H-pyran-4-yl)piperazin-1-yl)acetate] | – | > 500 |
| CCC(=O)N(CC1(N2CCN(CC(C)C)CC2)CCOC(C)(C)C1)c1ncccc1F (stereo not drawn) [Example 170, N-(3-fluoropyridin-2-yl)-N-((4-(4-isobutylpiperazin-1-yl)-2,2-dimethyltetrahydro-2H-pyran-4-yl)methyl)propionamide] | ++ | – |
| CCC(=O)N(CC1(N2CCN(Cc3ccccc3)CC2)CCOCC1)c1ccc(C(F)(F)F)nc1 [Example 11, N-((4-(4-benzylpiperazin-1-yl)tetrahydro-2H-pyran-4-yl)methyl)-N-(6-(trifluoromethyl)pyridin-3-yl)propionamide] | ++ | – |
| CCC(=O)N(CC1(N2CCN(CC(C)(C)OC)CC2)CCOCC1)c1cccc(C(F)(F)F)n1 [Example 191, N-((4-(4-(2-Methoxy-2-methylpropyl)piperazin-1-yl)tetrahydro-2H-pyran-4-yl)methyl)-N-(6-(trifluoromethyl)pyridin-2-yl)propionamide] | – | > 500 |
| CCOCCN1CCC(C2(CN(C(=O)CC)c3cccc(C(F)(F)F)n3)CCOCC2)CC1 [Example 177, N-((4-(1-(2-ethoxyethyl)piperidin-4-yl)tetrahydro-2H-pyran-4-yl)methyl)-N-(6-(trifluoromethyl)pyridin-2-yl)propionamide] | – | < 500 |
| CCC(=O)N(CC1(N2CCN(CC(C)C)CC2)CCSCC1)c1cccc(C(F)(F)F)n1 [Example 204, N-((4-(4-isobutylpiperazin-1-yl)tetrahydro-2H-thiopyran-4-yl)methyl)-N-(6-(trifluoromethyl)pyridin-2-yl)propionamide] | – | < 500 |
| CCC(=O)N(CC1(N2CCN(CCc3ncccc3F)CC2)CCOCC1)c1cccc(C(F)(F)F)n1 [Example 192, N-((4-(4-(2-(3-Fluoropyridin-2-yl)ethyl)piperazin-1-yl)tetrahydro-2H-pyran-4-yl)methyl)-N-(6-(trifluoromethyl)pyridin-2-yl)propionamide] | ++ | – |
| CCC(=O)N(CC1(N2CCN(CCO)CC2)CCOCC1)c1cccc(C(F)(F)F)n1 [Example 148, N-((4-(4-(2-hydroxyethyl)piperazin-1-yl)tetrahydro-2H-pyran-4-yl)methyl)-N-(6-(trifluoromethyl)pyridin-2-yl)propionamide] | – | > 500 |
| CCC(=O)N(CC1(N2CCN(C(C)c3ccc(F)cc3)CC2)CCOCC1)c1cccc(C(F)(F)F)n1 (stereo not drawn) [Example 182, N-((4-(4-(1-(4-fluorophenyl)ethyl)piperazin-1-yl)tetrahydro-2H-pyran-4-yl)methyl)-N-(6-(trifluoromethyl)pyridin-2-yl)propionamide] | – | < 500 |
| CCC(=O)N(CC1(N2CCN(CC(C)C)CC2)CCOC2(CCCC2)C1)c1cccc(C(F)(F)F)n1 (stereo not drawn) [Example 175, N-((9-(4-isobutylpiperazin-1-yl)-6-oxaspiro[4.5]decan-9-yl)methyl)-N-(6-(trifluoromethyl)pyridin-2-yl)propionamide] | – | < 500 |
| CCNC(=O)N(CC1(N2CCN(Cc3ccccc3)CC2)CCOCC1)c1ccccn1 [Example 49, 1-((4-(4-benzylpiperazin-1-yl)tetrahydro-2H-pyran-4-yl)methyl)-3-ethyl-1-(pyridin-2-yl)urea] | ++ | – |
| CCC(=O)N(CC1(N2CCN(Cc3ccccc3)CC2)CCOC(C)(C)C1)c1ncccc1C#N (stereo not drawn) [Example 68, N-((4-(4-benzylpiperazin-1-yl)-2,2-dimethyltetrahydro-2H-pyran-4-yl)methyl)-N-(3-cyanopyridin-2-yl)propionamide] | ++ | – |
| CC(=O)N(CC1(N2CCN(CC(C)C)CC2)CCOCC1)c1cccc(C(F)(F)F)n1 [Example 40, N-((4-(4-isobutylpiperazin-1-yl)tetrahydro-2H-pyran-4-yl)methyl)-N-(6-(trifluoromethyl)pyridin-2-yl)acetamide] | ++ | – |

| Compound | μ and σ1 dual (binding to the σ1 receptor and the μ-opioid receptor expressed as Ki) | Ki [nM] |
| --- | --- | --- |
| CCC(=O)N(CC1(N2CCN(Cc3ncccc3F)CC2)CC1)c1ccccc1 [Example 120, N-((1-(4-((3-fluoropyridin-2-yl)methyl)piperazin-1-yl)cyclopropyl)methyl)-N-phenylpropionamide] | – | > 500 |
| CCC(=O)N(CC1(N2CCN(CCOC3CC3)CC2)CCOCC1)c1cccc(C(F)(F)F)n1 [Example 183, N-((4-(4-(2-cyclopropoxyethyl)piperazin-1-yl)tetrahydro-2H-pyran-4-yl)methyl)-N-(6-(trifluoromethyl)pyridin-2-yl)propionamide] | – | < 500 |
| CCC(=O)N(CC1(N2CCN(Cc3ccc(F)cc3)CC2)CCOCC1)c1ccccn1 [Example 111, N-((4-(4-(4-fluorobenzyl)piperazin-1-yl)tetrahydro-2H-pyran-4-yl)methyl)-N-(pyridin-2-yl)propionamide] | – | < 500 |
| CCC(=O)N(CC(C)(C)N1CCN(CCc2ccccc2F)CC1)c1ncccc1F [Example 69, N-(2-(4-(2-fluorophenethyl)piperazin-1-yl)-2-methylpropyl)-N-(3-fluoropyridin-2-yl)propionamide] | ++ | – |
| CCC(=O)N(CC1(N2CCN(CCOC(C)C)CC2)CCOC(C)(C)C1)c1cccc(C#N)n1 (stereo not drawn) [Example 172, N-(6-cyanopyridin-2-yl)-N-((4-(4-(2-isopropoxyethyl)piperazin-1-yl)-2,2-dimethyltetrahydro-2H-pyran-4-yl)methyl)propionamide] | – | > 500 |
| CCC(=O)N(CC1(N2CCN(CC(C)C)CC2)CCOCC1)c1ccccn1 [Example 151, N-((4-(4-isobutylpiperazin-1-yl)tetrahydro-2H-pyran-4-yl)methyl)-N-(pyridin-2-yl)propionamide] | – | > 500 |
| CCC(=O)N(CC1(N2CCN(CCC(C)C)CC2)CCOC(C)(C)C1)c1cccc(C#N)n1 (stereo not drawn) [Example 88, N-(6-cyanopyridin-2-yl)-N-((4-(4-isopentylpiperazin-1-yl)-2,2-dimethyltetrahydro-2H-pyran-4-yl)methyl)propionamide] | ++ | – |
| CCC(=O)N(CC1(N2CCN(CCOC(C)C)CC2)CCOC(C)(C)C1)c1ccccn1 (stereo not drawn) [Example 163, N-((4-(4-(2-isopropoxyethyl)piperazin-1-yl)-2,2-dimethyltetrahydro-2H-pyran-4-yl)methyl)-N-(pyridin-2-yl)propionamide] | – | > 500 |
| CCC(=O)N(CC1(N2CCN(Cc3cccc(F)c3)CC2)CCOCC1)c1ccccc1 [Example 100, N-((4-(4-(3-fluorobenzyl)piperazin-1-yl)tetrahydro-2H-pyran-4-yl)methyl)-N-phenylpropionamide] | – | < 100 |
| CCC(=O)N(CC1(N2CCN(Cc3ccccc3)CC2)CCOCC1)c1ccc(F)cc1 [Example 81, N-((4-(4-benzylpiperazin-1-yl)tetrahydro-2H-pyran-4-yl)methyl)-N-(4-fluorophenyl)propionamide] | – | < 500 |
| CCC(=O)N(CC1(N2CCN(CC(C)C)CC2)CCOCC1)c1ncccc1C(F)(F)F [Example 63, N-((4-(4-isobutylpiperazin-1-yl)tetrahydro-2H-pyran-4-yl)methyl)-N-(3-(trifluoromethyl)pyridin-2-yl)propionamide] | ++ | – |
| CCC(=O)N(CC1(N2CCN(Cc3ccccc3)CC2)CCOC2(CCCC2)C1)c1cccc(C(F)(F)F)n1 (stereo not drawn) [Example 89, N-((9-(4-benzylpiperazin-1-yl)-6-oxaspiro[4.5]decan-9-yl)methyl)-N-(6-(trifluoromethyl)pyridin-2-yl)propionamide] | – | < 100 |
| CCC(=O)N(CC1(N2CCN(Cc3ccccc3)CC2)CCOCC1)c1ccccc1OC [Example 3, N-((4-(4-benzylpiperazin-1-yl)tetrahydro-2H-pyran-4-yl)methyl)-N-(2-methoxyphenyl)propionamide] | – | < 100 |
| CCNC(=O)N(CC1(N2CCN(CCc3ccccc3)CC2)CCCCC1)c1ccccc1 [Example 50, 3-ethyl-1-((1-(4-phenethylpiperazin-1-yl)cyclohexyl)methyl)-1-phenylurea] | – | < 500 |
| CCC(=O)N(CC1(N2CCN(Cc3cncc(F)c3)CC2)CCOCC1)c1ccccc1 [Example 107, N-((4-(4-((5-fluoropyridin-3-yl)methyl)piperazin-1-yl)tetrahydro-2H-pyran-4-yl)methyl)-N-phenylpropionamide] | – | < 500 |
| CCC(=O)N(CC1(N2CCN(C(CO)c3ccccc3)CC2)CCOCC1)c1ccccn1 (stereo not drawn) [Example 181, N-((4-(4-(2-hydroxy-1-phenylethyl)piperazin-1-yl)tetrahydro-2H-pyran-4-yl)methyl)-N-(pyridin-2-yl)propionamide] | – | > 500 |
